These are literature values, as cited in US20220226500A1, “FULLERENIC ELLAGIC LUTEOLIN AND METHODS” (Sinapu LLC, priority 2021, published 2022).

For series [1] the following is noted: in water.
For series [2] the following is noted: human body.

As for `O=c1oc2c(O)c(O)cc3c(=O)oc4c(O)c(O)cc1c4c23` [ellagic acid], in series [1], the solubility is on record as 0.0097 grams per liter of water. Moreover, the “time in which more than half of the absorbed blood plasma level is broken down” value in series [2] is “within one hour”.
